Entries after “also recorded” stand apart in the source; their conditions may differ. Read-outs that look alike come from different tables or passages of the source.
Experiments:
[1] = system: porcine coronary artery rings; test: Isometric myography: endothelium-independent relaxation to sodium nitroprusside; conditions: pre-contracted by 60 mM K+; 13b 0.5 µM, SKA-31 1 µM, alone or combined
Protocol: (§1) Myography on porcine coronary artery rings was performed as described in detail previously, [30]. In brief, left anterior descending arteries or posterior descending arteries were cut into rings (3 mm long) and rings were mounted onto a isometric force transducer (Pioden UF1, Graham Bell House, Canterbury, UK). The organ bath contained a 5 ml Krebs buffer maintained at 37°C and gassed with 95% O2/5% CO2. The composition of the Krebs buffer was as follows (in mM): NaCl 120, NaHCO3 24.5, CaCl2 2.4, KCl 4.7, MgSO4 1.2, KH2PO4 1 and glucose 5.6, pH 7.4. Each ring was passively stretched to an initial tension of 1 gr (10 mN). Changes in force were monitored and recorded on a computer using a Mac Lab System/8e program (AD Instruments Inc, Milford, Ma, USA), and digitalized at a sample rate of 0.5 sec.
(§2) To measure specifically endothelium-derived hyperpolarization-mediated vasorelaxation (EDH), the NO-synthase blocker, Nω-nitro-L-arginine (L-NNA, 300 µM), and the cyclooxygenase blocker, indomethacin (10 µM), were added to the buffer. Preparations were washed three times and were allowed to equilibrate for 40 min. Within this period, the incubation medium was renewed every 20 min. […] Ten min later, bradykinin (1 µM) was added for another 10 min, followed by washout (over at least 10 min). This protocol was repeated (2nd stimulation). Thereafter, we performed a 3rd round of pre-contraction and vasorelaxation, but using the vasospasmic thromboxane analogue U46619 (0.2 µM) as vasocontracting agent. At the end of the experiments, rings were allowed to contract maximally in a KCl (60 mM) buffer for 10 min followed by addition of the compounds. Finally, sodium nitroprusside (10 µM) was added to achieve maximal endothelium-independent vasorelaxation. […]
(§3) For data analysis, we determined absolute increases in force to 5-HT, U46619, or 60 mM KCl. Bradykinin-induced relaxations were determined as % change of pre-contraction to either vasocontracting compound and relative to the fully relaxed state (in the absence of the vasocontracting agent).

KCa1.1 = system: T1, KCa1.1; test: Whole-cell patch-clamp of KCa1.1 in U251 glioblastoma cells; format: cell-based, human
T1 construct: KCa1.1 in human U251 glioblastoma cells; endogenous in cells; host or cells: U251 glioblastoma cells

[2] = system: porcine coronary artery rings; test: Isometric myography: contractions to 60 mM K+; conditions: 13b 0.5 µM, SKA-31 1 µM, alone or combined
Protocol: as §1, §2, §3

[3] = system: inward-rectifying K+ current (Kir) in U251 glioblastoma cells; test: Whole-cell patch-clamp of native inward-rectifying K+ current in U251 cells; format: cell-based, human; conditions: 1 µM, at −100 mV, n = 5
[4] = biological target: T2, KCa3.1 channels in 3T3 fibroblasts (Mus musculus, UniProt O89109); test: Whole-cell patch-clamp of KCa3.1 currents in 3T3 fibroblasts; format: cell-based; conditions: for remaining activity at 1 µM: compound 1 µM, read-out: % of control at 1 µM; for KCa3.1 blocking effect (in words): concentrations up to 50 µM as in Table 1
T2 construct: KCa3.1 channels in 3T3 fibroblasts; endogenous in cells; host or cells: 3T3-L1 mouse embryonic fibroblasts

[5] = system: mixed KCa3.1 and KCa2.3 currents in PCAEC; test: Whole-cell patch-clamp of KCa currents in porcine coronary artery endothelial cells; format: cell-based
hERG = system: T3, hERG; test: Whole-cell patch-clamp of hERG tail currents in HEK293 cells; format: cell-based, human; conditions: human, HEK293 cells expressing hERG, pH 7.4, hERG
T3 construct: expressed in transfected cells; gift of Craig January, University of Wisconsin

hERG channels = system: T4, hERG channels; test: as above; format: cell-based, human; conditions: 13b 1 µM; caffeic acid, flufenamic acid 10 µM (Table S1)
T4 construct: expressed in transfected cells; gift of Craig January, University of Wisconsin

3T3 fibroblasts = test: Cell proliferation assay (Janus B Green staining); format: cell-based, mouse
Protocol: Cell proliferation was spectrophotometrically assessed as described previously with some modifications. Briefly, 3T3 fibroblasts (1500 cells/well) were seeded in 96-well plates (TPP. Switzerland), cultured in DMEM containing 10% FCS (Lonza, Switzerland) with 13b or vehicle (DMSO), and formalin-fixed at days 0,1,2 and 3. To exclude the possibility that DMSO as vehicle affected the cell viability per se, final DMSO concentrations were the same for each concentration of 13b and the controls. Fixed cells were stained for 5 minutes with 50 ul/well of 0.3% Janus B Green dye (Acros Organics, Belgium) at room temperature with constant stirring followed by a de-staining step with water. Dye was eluted with 200 ul/well of 0.5 M HCl of hydrochloric acid and top-read measurements of absorbance were performed in a microplate reader (Sinergy HT, Biotek, USA) at 595 nm.

[6] = system: porcine coronary artery rings; test: Isometric myography: U46619-induced contractions; conditions: 13b 0.5 µM
Protocol: as §1
(§4) To measure specifically endothelium-derived hyperpolarization-mediated vasorelaxation (EDH), the NO-synthase blocker, Nω-nitro-L-arginine (L-NNA, 300 µM), and the cyclooxygenase blocker, indomethacin (10 µM), were added to the buffer. Preparations were washed three times and were allowed to equilibrate for 40 min. Within this period, the incubation medium was renewed every 20 min. […] Ten min later, bradykinin (1 µM) was added for another 10 min, followed by washout (over at least 10 min). This protocol was repeated (2nd stimulation). Thereafter, we performed a 3rd round of pre-contraction and vasorelaxation, but using the vasospasmic thromboxane analogue U46619 (0.2 µM) as vasocontracting agent. At the end of the experiments, rings were allowed to contract maximally in a KCl (60 mM) buffer for 10 min followed by addition of the compounds. Finally, sodium nitroprusside (10 µM) was added to achieve maximal endothelium-independent vasorelaxation.
(§5) DMSO as the vehicle had no vasoactive effect per se on the tissue. Other compounds were dissolved in Milli-Q water.
as §3

hKv1.3 = system: T5, hKv1.3; test: Whole-cell patch-clamp of cloned hKv1.3; format: cell-based, human
T5 construct: expressed in transfected cells

hKv1.2 = biological target: T6, hKv1.2 (Homo sapiens, UniProt P16389); test: Whole-cell patch-clamp of cloned hKv1.2; format: cell-based
T6 construct: expressed in transfected cells; host or cells: B82 murine fibroblasts (Methods)
T6 sequence (P16389 whole entry): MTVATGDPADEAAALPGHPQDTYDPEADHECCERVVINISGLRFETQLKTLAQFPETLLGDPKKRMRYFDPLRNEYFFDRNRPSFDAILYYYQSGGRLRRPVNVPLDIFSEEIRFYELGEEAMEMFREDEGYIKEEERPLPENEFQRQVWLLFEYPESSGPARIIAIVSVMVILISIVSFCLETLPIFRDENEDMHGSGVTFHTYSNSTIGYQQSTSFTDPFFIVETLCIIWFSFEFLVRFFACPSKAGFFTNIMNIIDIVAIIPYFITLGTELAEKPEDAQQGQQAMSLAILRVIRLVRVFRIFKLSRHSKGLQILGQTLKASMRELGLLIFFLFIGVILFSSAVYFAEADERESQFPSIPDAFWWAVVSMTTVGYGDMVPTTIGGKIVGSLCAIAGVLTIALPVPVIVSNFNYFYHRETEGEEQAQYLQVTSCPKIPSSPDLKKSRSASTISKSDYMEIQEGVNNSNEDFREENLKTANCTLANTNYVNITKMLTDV

[7] = biological target: T7, cloned human KCa3.1 channel (Homo sapiens, UniProt O15554); test: Inside-out patch recordings from hKCa3.1-overexpressing HEK293 cells; format: biochemical; conditions: inside-out patches
T7 construct: expressed in transfected cells; gift of Khaled Houamed, University of Chicago

hKCa2.3 [8] = biological target: T8, hKCa2.3 (Homo sapiens, UniProt Q9UGI6); test: Inside-out single-channel experiments on hKCa2.3; format: biochemical
T8 construct: expressed in transfected cells; host or cells: COS7
T8 sequence (Q9UGI6 whole entry): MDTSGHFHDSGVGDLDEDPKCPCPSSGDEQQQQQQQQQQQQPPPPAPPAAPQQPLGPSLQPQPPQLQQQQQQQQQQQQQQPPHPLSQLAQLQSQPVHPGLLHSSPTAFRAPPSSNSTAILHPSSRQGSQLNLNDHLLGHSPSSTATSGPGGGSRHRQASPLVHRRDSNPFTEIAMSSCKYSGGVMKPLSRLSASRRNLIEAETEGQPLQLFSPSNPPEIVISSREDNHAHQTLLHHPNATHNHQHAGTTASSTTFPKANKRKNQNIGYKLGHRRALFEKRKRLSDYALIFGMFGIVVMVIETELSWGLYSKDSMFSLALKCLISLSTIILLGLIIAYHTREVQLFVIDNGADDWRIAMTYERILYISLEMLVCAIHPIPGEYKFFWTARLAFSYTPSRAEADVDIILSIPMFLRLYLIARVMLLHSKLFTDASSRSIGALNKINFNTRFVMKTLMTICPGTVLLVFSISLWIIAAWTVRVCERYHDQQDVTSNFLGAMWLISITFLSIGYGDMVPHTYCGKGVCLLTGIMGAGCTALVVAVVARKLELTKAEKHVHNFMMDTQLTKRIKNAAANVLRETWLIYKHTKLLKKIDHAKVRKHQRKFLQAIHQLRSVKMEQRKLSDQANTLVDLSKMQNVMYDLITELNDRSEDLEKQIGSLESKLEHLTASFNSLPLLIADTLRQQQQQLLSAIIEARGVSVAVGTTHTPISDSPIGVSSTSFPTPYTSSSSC

hKCa2.3 [9] = biological target: T8, hKCa2.3; test: Whole-cell patch-clamp of hKCa2.3 in COS7 cells; format: cell-based
[10] = system: porcine coronary artery rings; test: Isometric myography: bradykinin-induced (EDH) relaxation; conditions: 13b 0.5 µM
Protocol: as §1, §4, §5, §3

[11] = system: porcine coronary artery rings; test: Isometric myography: 5-HT-induced contractions; conditions: 13b 0.5 µM
Protocol: as §1, §4, §5, §3

[12] = system: non-selective cation channels; conditions: previously shown; no reference given; read-out: reported EC50, non-selective cation channels; cited from earlier work
[13] = system: calcium-activated chloride channels; conditions: previously shown; no reference given; read-out: reported EC50, calcium-activated chloride channels; cited from earlier work
[14] = KCa3.1 whole-cell current, 3T3 fibroblasts, 1 µM free Ca2+ in pipette, mean ± SEM, n ≥3
[15] = whole-cell, 3T3 fibroblasts, read-out: EC50 of KCa3.1 inhibition
[16] = 1 µM bradykinin, SKA-31 1 µM, alone or combined
[17] = 1 µM 5-HT, SKA-31 1 µM, alone or combined

With `O=C(OCc1cc(COC(=O)c2ccc(O)c(F)c2)cc(COC(=O)c2ccc(O)c(F)c2)c1)c1ccc(O)c(F)c1` [Compound 13b, [3,5-bis[(3-fluoro-4-hydroxy-benzoyl)oxymethyl]phenyl]methyl 3-fluoro-4-hydroxy-benzoate] the “% relaxation to 10 µM SNP” value [1] was 84±4%, the “KCa1.1 effect (in words)” value (KCa1.1; U251 glioblastoma cells, 13b 1 µM, caffeic acid 10 µM) was “not blocked” and the “% of control at 1 µM” value (KCa1.1; hKCa1.1, compound 1 µM) was 103 ± 3%. The “Δg, contraction to 60 mM K+” value [2] was 3.1 ± 0.3 g, the “Kir current, % of control” value [3] was 98±2% and the remaining activity at 1 µM [4, 14] was 4 ± 1%. The EC50 ([4]; KCa3.1 whole-cell, 1 µM SKA-31, read-out: EC50 to suppress the SKA-31-induced current) was 161 ± 121 nM, the Hill coefficient ([4]; KCa3.1 whole-cell, 3T3 fibroblasts) was roughly 1 and the “KCa3.1 blocking effect (in words)” value ([4]; whole-cell, 3T3 fibroblasts) was “Complete inhibition”. The EC50 [4, 15] was 19 nM, the “block of current potentiated by 1 µM SKA-31 (in words)” value ([5]; 1 µM 13b) was “almost fully blocked” and the “KCa current, % of control” value ([5]; whole-cell, compound 1 µM) was 14±7%. The activity at 1 µM (hERG; compound 1 µM, read-out: % of control at 1 µM) was 94 ± 3%, the “hERG effect (in words)” value (hERG channels) was “not blocked; also recorded: did not block” and the “change of proliferation vs. vehicle” value (3T3 fibroblasts; 0.5 µM, day 3) was −23%. For the same compound, the “change of proliferation vs. vehicle” value (3T3 fibroblasts; 2 µM, day 3) was “–20%”, the “cytotoxicity (in words)” value (3T3 fibroblasts; cultured 3T3 fibroblasts) was “not cytotoxic; also recorded: non-toxic” and the “inhibition (reduction) of cell proliferation” value (3T3 fibroblasts; day 3, 0.5 and 2 µM) was 20%. The Δg ([6]; 0.2 µM U46619, SKA-31 1 µM, alone or combined) was 2.8 ± 0.2 g, the “change of U46619 contraction vs. vehicle” value ([6]; alone or with SKA-31 1 µM) was “+29%” and the “hKv1.3 blocking effect (in words)” value (hKv1.3; concentration of 10 µM as printed) was “not inhibited; also recorded: did not block”. The “% of control at 1 µM” value (hKv1.3; hKv1.3, compound 1 µM) was 96.4 ± 0.2%, the inhibition at 0.1 µM (hKv1.2; 100 nM) was 19% and the remaining activity at 1 µM (hKv1.2; hKv1.2, compound 1 µM, read-out: % of control at 1 µM) was 11 ± 2%. For the same compound, the EC50 (hKv1.2; read-out: EC50 of hKv1.2 block) was 550 ± 10 nM, the EC50 ([7]; HEK293, 0.5 µM free Ca2+, read-out: EC50 of hKCa3.1 inhibition) was 14 nM and the Hill coefficient ([7]; hKCa3.1) was roughly 1. For the same compound, the EC50 (hKCa2.3 [8]; inside-out single channel experiments, read-out: EC50 of hKCa2.3 inhibition) was 0.241 ± 0.129 nM, the Hill coefficient (hKCa2.3 [8]; inside-out, hKCa2.3) was roughly 1 and the remaining activity at 1 µM (hKCa2.3 [9]; COS-7, hKCa2.3, compound 1 µM, mean ± SEM, n ≥ 3, read-out: % of control at 1 µM) was 4 ± 2%. The Hill coefficient (hKCa2.3 [9]; hKCa2.3 whole-cell) was roughly 1, the EC50 (hKCa2.3 [9]; whole-cell, COS7 cells, 1 µM free Ca2+, read-out: EC50 of hKCa2.3 inhibition) was 0.36 nM and the “% relaxation, 5-HT-precontraction” value [10, 16] was 24±2%. The “% relaxation, U46619-precontraction” value [10, 16] was −1±1%, the “continued contraction of U46619-precontracted rings with bradykinin” value [10] was “+1 % contraction” and the “Δg, 1st stimulation” value [11, 17] was 0.7 ± 0.1 g. For the same compound, the “Δg, 2nd stimulation” value [11, 17] was 0.7 ± 0.1 g, the “change of amplitude of 5-HT contraction vs. vehicle, 1st stimulation” value [11] was “+74%” and the “change of amplitude of 5-HT contraction vs. vehicle, 2nd stimulation” value [11] was “+90%”.

With `O=C(O)c1ccccc1Nc1cccc(C(F)(F)F)c1` [Flufenamic Acid, 2-(3-(trifluoromethyl)phenylamino) benzoic acid, reference compound] the “potentiation of KCa1.1” value (KCa1.1; 10 µM) was 2.7 fold, the “% of control at 10 µM” value (KCa1.1; hKCa1.1, compound 10 µM) was 270 ± 106% and the remaining activity at 1 µM [4, 14] was 65 ± 4%. It also gave a remaining activity at 10 µM ([4]; KCa3.1 whole-cell current, 3T3 fibroblasts, 1 µM free Ca2+ in pipette, compound 10 µM, mean ± SEM, n ≥3, read-out: % of control at 10 µM) of 13 ± 5%, a remaining activity at 50 µM ([4]; KCa3.1 whole-cell current, 3T3 fibroblasts, 1 µM free Ca2+ in pipette, compound 50 µM, mean ± SEM, n ≥3, read-out: % of control at 50 µM) of 2.5 ± 0.3% and a remaining activity at 10 µM ([4]; read-out: KCa3.1 current blocked, % of control) of 6 ± 1%. The “KCa3.1 blocking effect (in words)” value ([4]; whole-cell, 3T3 fibroblasts) was “Complete inhibition”, the EC50 [4, 15] was 1600 nM and the “mixed KCa3.1/KCa2.3 current, % of control” value ([5]; 10 µM, n = 2) was 25±3%. The “mixed KCa3.1/KCa2.3 current, % of control” value ([5]; 50 µM, n = 1) was 3%, the EC50 [12] was roughly 5000 nM and the EC50 [13] was roughly 30000 nM. The activity at 10 µM (hERG; compound 10 µM, read-out: % of control at 10 µM) was 116 ± 15%, the “hERG effect (in words)” value (hERG channels) was “slight potentiation” and the “hKv1.2 blocking effect (in words)” value (hKv1.2; flufenamic acid and caffeic acid 10 and 50 µM, 13c 1 µM) was “did not block”. The remaining activity at 10 µM (hKv1.2; hKv1.2, compound 10 µM, read-out: % of control at 10 µM) was 106 ± 5%, the remaining activity at 50 µM (hKv1.2; hKv1.2, compound 50 µM, read-out: % of control at 50 µM) was 100 ± 2% and the remaining activity at 10 µM (hKCa2.3 [9]; COS-7, hKCa2.3, compound 10 µM, mean ± SEM, n ≥ 3, read-out: % of control at 10 µM) was 104 ± 5%. For the same compound, the remaining activity at 50 µM (hKCa2.3 [9]; COS-7, hKCa2.3, compound 50 µM, mean ± SEM, n ≥ 3, read-out: % of control at 50 µM) was 100 ± 2% and the “KCa2.3 blocking effect (in words)” value (hKCa2.3 [9]; micromolar concentrations) was “no blocking effects”.
